Assay results as given in patent US5384408A, “Substituted pyrazine and its salts, compositions containing them and their use in medicine” (priority 1993, dated 1995).
Entries after “also recorded” stand apart in the source; their conditions may differ. Like-named read-outs stand apart in the source and are kept apart here.

Assays:
M1 (ganglion) = target: T1, M1 (ganglion) (Rattus norvegicus, UniProt P08482); assay: functional selectivity, ganglion M1 agonist activity (methods of J. Med. Chem. 1987, 30, 969-975); type: biochemical
T1 construct: as measured in the rat ganglion; from tissue; host or cells: rat ganglion
T1 sequence (P08482 1-460): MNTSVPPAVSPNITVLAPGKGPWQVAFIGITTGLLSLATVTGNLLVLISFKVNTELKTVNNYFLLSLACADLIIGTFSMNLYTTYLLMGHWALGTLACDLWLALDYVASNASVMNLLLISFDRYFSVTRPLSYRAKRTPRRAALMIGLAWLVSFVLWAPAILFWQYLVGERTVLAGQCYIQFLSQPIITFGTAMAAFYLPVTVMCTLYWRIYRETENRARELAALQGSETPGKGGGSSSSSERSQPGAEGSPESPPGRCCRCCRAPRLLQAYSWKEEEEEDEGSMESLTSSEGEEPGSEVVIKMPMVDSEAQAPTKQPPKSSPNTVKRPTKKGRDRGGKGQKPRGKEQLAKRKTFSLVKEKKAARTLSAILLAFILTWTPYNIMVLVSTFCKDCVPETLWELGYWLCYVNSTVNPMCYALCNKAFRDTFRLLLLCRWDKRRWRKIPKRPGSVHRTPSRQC
Source text: (§1) European Patent Application No. 89200147 (Publication No. 327155) discloses a class of pyrazines, pyridazines or pyrimidines, and salts and prodrugs thereof, substituted on one of the ring carbon atoms thereof with a non-aromatic azacyclic or azabicyclic ring system; and independently substituted on each of the other ring carbon atoms with a substituent of low lipophilicity or a hydrocarbon substituent, which compounds stimulate cholinergic transmission.
(§2) 1. By the methods disclosed in J. Med. Chem. (1987), 30, 969-975 was determined the functional selectivity of compound (I): […]

intraocular pressure = assay: Glaucoma method: intraocular pressure in African Green monkeys; type: in vivo
Method: Male or female African Green monkeys (2.0-4.5 kg) were fasted following their afternoon feeding on the day prior to the experiment. The monkeys were anaesthetised in their cages with approximately 10 mg/kg i.m. ketamine HCl (Vetalar or Ketaset). Once sedated, the animals were restrained in monkey chairs and brought to the laboratory. One drop of 0.5% proparacaine (Ophthetic) was instilled into each eye. After 30 seconds, intraocular pressure (IOP) determinations were taken in each eye (control or "0" time reading) using a Digilab Modular One Pneuma Tonometer. Both eyes were then flushed with saline. Vehicle or test agent (0.0005-2.0%) was administered (25 μl) into the cul-de-sac of both eyes and the IOP was determined at 0.5 and 1.0 hour and at hourly intervals thereafter for up to 5 hours and compared to the control IOP. For ocular instillation, 0.5% hydroxyethylcellulose (HEC) was employed as the vehicle. Supplemental doses of 10 mg or more/animal i.m. ketamine HCl were given 3-5 minutes prior to IOP determinations. Proparacaine HCl (0.5%) (one drop/eye) was also instilled immediately prior to IOP determinations. Following the final IOP determination, both eyes were flushed liberally with saline and a sterile ophthalmic ointment (Ilotycin, erythromycin, 5 mg/gm) was applied. […] Pupil diameter was measured under standard laboratory lighting conditions using a millimeter ruler. […]

M3 muscarinic receptor [1] = target: T2, M3 muscarinic receptor (Cavia porcellus, UniProt H0W1Z3); assay: M3 muscarinic activity, ileum preparation (method of Freedman et al.); type: biochemical, guinea pig; conditions: for M3 receptor action (in words): ileum assay
T2 construct: involving ileum preparation; from tissue; host or cells: ileum (guinea pig by b7)
T2 sequence (H0W1Z3 1-590): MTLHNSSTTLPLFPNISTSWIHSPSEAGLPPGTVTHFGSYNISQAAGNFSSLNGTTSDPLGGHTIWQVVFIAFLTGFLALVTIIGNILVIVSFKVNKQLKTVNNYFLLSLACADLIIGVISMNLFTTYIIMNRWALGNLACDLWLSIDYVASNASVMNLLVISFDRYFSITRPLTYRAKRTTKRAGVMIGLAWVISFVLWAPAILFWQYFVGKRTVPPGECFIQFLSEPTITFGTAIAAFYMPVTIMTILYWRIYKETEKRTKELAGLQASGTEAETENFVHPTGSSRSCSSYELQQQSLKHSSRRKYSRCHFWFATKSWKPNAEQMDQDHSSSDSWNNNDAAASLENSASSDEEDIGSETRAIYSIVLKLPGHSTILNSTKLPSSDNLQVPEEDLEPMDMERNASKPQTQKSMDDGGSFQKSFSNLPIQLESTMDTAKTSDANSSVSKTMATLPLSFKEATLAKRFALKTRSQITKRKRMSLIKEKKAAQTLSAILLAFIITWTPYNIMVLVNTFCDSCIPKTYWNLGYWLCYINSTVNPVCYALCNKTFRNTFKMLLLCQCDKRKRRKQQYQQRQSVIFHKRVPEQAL

M3 muscarinic receptor [2] = assay: as above; type: biochemical, guinea pig; conditions: versus reference 6-Cl compound
M1 muscarinic receptor = target: T3, M1 muscarinic receptor (Rattus norvegicus, UniProt P08482); assay: M1 muscarinic activity (method of Newberry et al.); type: biochemical
T3 construct: as measured in the rat ganglion; from tissue
T3 sequence (P08482 1-460): T1 sequence (P08482 1-460)
Source text: as §1
The following two compounds: 3(R)-[2-(6-trifluoromethyl) pyrazinyl]-1-azabicyclo[2.2.2]octane (Compound 1), and 3(R)-[2-(6chloro)pyrazinyl]-1-azabicyclo[2.2.2]octane (Compound 2) were tested for muscarinic activity using the method of Newberry, et al. (Br. J. Pharmacol, 1987, pp. 817-876). The specific M1 muscarinic activities of Compound 1 and Compound 2 were determined and the results are as follows: […]

M2 (heart) = target: T4, M2 (heart) (Cavia porcellus, UniProt H0VRN8); assay: functional selectivity, heart M2 antagonist activity (methods of J. Med. Chem. 1987, 30, 969-975); type: biochemical, guinea pig
T4 construct: as measured in the guinea pig heart; from tissue; host or cells: guinea pig heart
T4 sequence (H0VRN8 1-466): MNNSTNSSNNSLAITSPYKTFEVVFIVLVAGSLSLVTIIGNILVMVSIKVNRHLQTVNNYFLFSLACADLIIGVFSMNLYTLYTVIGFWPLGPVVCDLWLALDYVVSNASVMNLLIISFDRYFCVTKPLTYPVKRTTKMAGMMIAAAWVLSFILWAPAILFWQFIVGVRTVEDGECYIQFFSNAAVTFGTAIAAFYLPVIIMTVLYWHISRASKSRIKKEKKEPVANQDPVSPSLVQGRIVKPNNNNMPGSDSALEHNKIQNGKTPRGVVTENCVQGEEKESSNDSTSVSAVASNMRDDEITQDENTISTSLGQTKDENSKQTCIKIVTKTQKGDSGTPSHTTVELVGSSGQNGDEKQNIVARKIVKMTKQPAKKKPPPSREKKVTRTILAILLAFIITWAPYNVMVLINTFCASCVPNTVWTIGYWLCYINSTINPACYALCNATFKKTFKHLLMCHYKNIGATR
Source text: as §1, §2

M3 (ileum) = target: T5, M3 (ileum) (Cavia porcellus, UniProt H0W1Z3); assay: functional selectivity, ileum M3 antagonist activity (methods of J. Med. Chem. 1987, 30, 969-975); type: biochemical, guinea pig
T5 construct: guinea pig heart and guinea pig ileum; from tissue; host or cells: guinea pig ileum
T5 sequence (H0W1Z3 1-590): as the sequence (H0W1Z3 1-590) above
Source text: as §1, §2

[3] = listed as 6-C1 reference compound

FC(F)(F)c1cncc([C@H]2CN3CCC2CC3)n1 [(I): (+) base isomer, (R)-(+)-3-[2-(6-Trifluoromethylpyrazin)yl]-1-azabicyclo[2.2.2]octane] was tested, and the EC50 (M1 (ganglion)) was 200 nM, the “Change in IOP (maximum mm Hg change in intraocular pressure)” value (intraocular pressure; 0.05%, 25 μl into cul-de-sac of both eyes, up to 5 hours) was -3.5 mm Hg and the “intraocular pressure lowering (in words)” value (intraocular pressure; glaucoma test) was “positive lowering of intraocular pressure”. For the same compound, the Kb (M3 muscarinic receptor [1]) was 15.8 nM, the “M3 receptor action (in words)” value (M3 muscarinic receptor [1]; listed as 6-CF3 compound) was “not an agonist at the M3 receptor; also recorded: not an agonist of M3 receptors” and the “M3 receptor action (in words)” value (M3 muscarinic receptor [1]; listed as Compound 1) was “acts as antagonist on M3 receptors”. For the same compound, the “selectivity of action, M1 over M3 (in words)” value (M3 muscarinic receptor [2]) was “significantly greater selectivity of action”, the EC50 (M1 muscarinic receptor) was 200 nM and the “M1 muscarinic activity (in words)” value (M1 muscarinic receptor; listed as 6-CF3 compound) was “retains M 1 muscarinic agonist activity comparable to that of the reference 6-C1 compound”. The “M1 muscarinic activity (in words)” value (M1 muscarinic receptor; listed as Compound 1) was “possess M1 muscarinic activity”, the Kb (M2 (heart)) was 15.8 nM and the Kb (M3 (ileum)) was 15.8 nM.

Compound FC(F)(F)c1cncc(C2CN3CCC2CC3)n1 (racemic) [(±) racemate, (±)-3-[2-(6-Trifluoromethylpyrazin)yl]-1-azabicyclo[2.2.2]octane] has an EC50 (M1 (ganglion)) of 500 nM, a Kb (M2 (heart)) of 25.1 nM and a Kb (M3 (ileum)) of 79.4 nM.

Clc1cncc([C@H]2CN3CCC2CC3)n1 [Compound 2, 3(R)-[2-(6chloro)pyrazinyl]-1-azabicyclo[2.2.2]octane, reference compound] was tested, and the EC50 (M3 muscarinic receptor [1]) was 30 nM, the “M3 receptor action (in words)” value (M3 muscarinic receptor [1]) was “M3 receptor agonist” and the “M3 receptor action (in words)” value (M3 muscarinic receptor [1]; [3]) was “agonist on M3 receptors”. The “M3 muscarinic activity pA2” value (M3 muscarinic receptor [1]; ileum preparation, antagonist) was “no measurable pA2 data”, the “M1 muscarinic activity (in words)” value (M1 muscarinic receptor) was “possess M1 muscarinic activity” and the “M1 muscarinic activity (in words)” value (M1 muscarinic receptor; [3]) was “agonist on M1 receptors”.

With FC(F)(F)c1cncc([C@@H]2CN3CCC2CC3)n1 [(-) base isomer] the “Ganglion M1 (EC50)” value (M1 (ganglion)) was “no agonist effect”, the Kb (M2 (heart); heart, antagonist, read-out: Heart M2 (pA2) (converted)) was 100 nM and the Kb (M3 (ileum); ileum, antagonist, read-out: Ileum M3 (pA2) (converted)) was 63.1 nM.
